Laboratory results taken from patent publication US9227979B2, “Fluorescent antagonists of the A3 adenosine receptor” (The United States of America, as represented by the …, priority 2012, dated 2016).
Like-named read-outs stand apart in the source and are kept apart here.

Experiments:
hA2AAR = hA2AAR (Homo sapiens (Human), UniProt P29274); test: Radioligand membrane binding assay at hA2A AR ([3H]CGS21680); conditions: for Ki: read-out: A2A Ki
Protocol: (§1) For cell cultures used in radioligand binding assays, after harvest and homogenization, the cells were centrifuged at 200×g for 10 min, and the pellet was re-suspended in 50 mM Tris-HCl buffer (pH 7.5), containing 10 mM MgCl2. The suspension was homogenized with an electric homogenizer for 10 s and was then re-centrifuged at 20,000×g for 20 min at 4° C. The resultant membrane pellets were resuspended in buffer in the presence of 3 units/ml adenosine deaminase, and the suspension was stored at −80° C. until the binding experiments. The protein concentration was measured using the Bradford assay. Radioligand membrane binding assays

hA3AR = hA3AR (Homo sapiens (Human), UniProt P0DMS8); test: Radioligand membrane binding assay at hA3AR ([125I]I-AB-MECA); conditions: read-out: A3 Ki
Chain of hA3AR (P0DMS8 whole entry): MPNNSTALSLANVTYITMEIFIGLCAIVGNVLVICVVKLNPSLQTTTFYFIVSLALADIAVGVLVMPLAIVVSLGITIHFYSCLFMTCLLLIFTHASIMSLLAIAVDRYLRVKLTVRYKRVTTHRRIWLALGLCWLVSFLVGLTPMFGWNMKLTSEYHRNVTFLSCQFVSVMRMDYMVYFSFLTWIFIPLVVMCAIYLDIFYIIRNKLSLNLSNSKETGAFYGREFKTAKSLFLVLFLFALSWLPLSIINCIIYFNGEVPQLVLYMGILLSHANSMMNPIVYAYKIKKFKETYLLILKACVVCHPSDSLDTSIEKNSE
Protocol: as §1

hA1 AR = hA1 AR (Homo sapiens (Human), UniProt P30542); test: Radioligand membrane binding assay at hA1 AR ([3H]R-PIA)
Chain of hA1 AR (P30542 whole entry): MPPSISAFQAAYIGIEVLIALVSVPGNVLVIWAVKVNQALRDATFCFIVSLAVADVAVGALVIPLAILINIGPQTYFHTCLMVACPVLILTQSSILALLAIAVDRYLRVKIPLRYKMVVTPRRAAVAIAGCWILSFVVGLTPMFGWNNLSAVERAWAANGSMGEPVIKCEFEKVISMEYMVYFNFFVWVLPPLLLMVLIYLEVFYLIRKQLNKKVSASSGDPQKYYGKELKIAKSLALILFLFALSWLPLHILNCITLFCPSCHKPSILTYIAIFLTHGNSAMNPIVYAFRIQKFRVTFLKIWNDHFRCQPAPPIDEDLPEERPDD
Protocol: as §1

[1] = Table 1, HEK293 cells expressing hA2AAR, [3H]CGS21680
[2] = Table 1, CHO cells expressing hA3AR, [125I]I-AB-MECA
[3] = Table 1, inhibition of radioligand binding at 10 μM

Chain of hA2AAR (P29274 whole entry): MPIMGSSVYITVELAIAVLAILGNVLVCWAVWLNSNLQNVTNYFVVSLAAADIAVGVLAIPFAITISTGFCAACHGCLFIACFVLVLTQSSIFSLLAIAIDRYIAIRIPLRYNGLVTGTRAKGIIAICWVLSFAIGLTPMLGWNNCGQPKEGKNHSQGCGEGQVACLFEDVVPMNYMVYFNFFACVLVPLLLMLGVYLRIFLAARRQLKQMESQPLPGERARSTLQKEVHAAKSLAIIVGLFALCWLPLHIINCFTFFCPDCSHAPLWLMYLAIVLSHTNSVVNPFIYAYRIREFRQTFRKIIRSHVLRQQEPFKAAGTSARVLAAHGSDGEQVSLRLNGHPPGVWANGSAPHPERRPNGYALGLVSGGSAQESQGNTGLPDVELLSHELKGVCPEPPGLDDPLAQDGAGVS

Ki (hA2AAR; Table 3) | Ki (hA3AR; Table 3) | A1 % inhibition (hA1 AR; Table 3) | Ki (hA2AAR; [1]) | Ki (hA3AR; [2]) | Ki (hA1 AR; Table 1, CHO cells expressing hA1AR, agonist radioligand [3H]R-PIA, read-out: A1 Ki) | SMILES | A1 % inhibition (hA1 AR; [3]) | A2A % Inhibition (hA2AAR; [3])
90 nM | 31.8 nM | – | – | – | – | Cn1cc2c(nc(NC(=O)CCCc3cn(CCCCCCNC(=O)c4ccc(-c5c6ccc(=N)c(S(=O)(=O)O)c-6oc6c(S(=O)(=O)O)c(N)ccc56)c(C(=O)O)c4)nn3)n3nc(-c4ccco4)nc23)n1 [MRS5763] | – | –
110 ± 18 nM | 104 ± 44 nM | 27% ± 1% | – | – | – | Cn1cc2c(nc(NC(=O)Nc3ccc(CC(=O)NCCCNC(=S)Nc4ccc5c(c4)C(=O)OC54c5ccc(O)cc5Oc5cc(O)ccc54)cc3)n3nc(-c4ccco4)nc23)n1 [Compound 22, N-(3-(3-(Fluorescein-5-yl)thioureido)propyl)-2-(4-(3-(2-(furan-2-yl)-8-methyl-8H-pyrazolo[4,3-e][1,2,4]triazolo[1,5-c]pyrimidin-5-yl)ureido)phenyl)acetamide] | – | –
91.5 ± 20 nM | 207 ± 95 nM | 32% ± 6% | – | – | – | Cn1cc2c(nc(NC(=O)Nc3ccc(CC(=O)NCCCOCCOCCOCCCNC(=S)Nc4ccc5c(c4)C(=O)OC54c5ccc(O)cc5Oc5cc(O)ccc54)cc3)n3nc(-c4ccco4)nc23)n1 [Compound 26, N-(1((Fluorescein-5-yl)amino)-1-thioxo-6,9,12-trioxa-2-azapentadecan-15-yl)-2-(4-(3-(2-(furan-2-yl)-8-methyl-8H-pyrazolo[4,3-e][1,2,4]triazolo[1,5-c]pyrimidin-5-yl)ureido)phenyl)acetamide] | – | –
95.7 ± 25.4 nM | 137 ± 28 nM | 29% ± 1% | – | – | – | Cn1cc2c(nc(NC(=O)Nc3ccc(CC(=O)NCCOCCOCCNC(=S)Nc4ccc5c(c4)C(=O)OC54c5ccc(O)cc5Oc5cc(O)ccc54)cc3)n3nc(-c4ccco4)nc23)n1 [Compound 25, N-(2-(2-(2-(3-(Fluorescein-5-yl)thioureido)ethoxy)ethoxy)ethyl)-2-(4-(3-(2-(furan-2-yl)-8-methyl-8H-pyrazolo[4,3-e][1,2,4]triazolo[1,5-c]pyrimidin-5-yl)ureido)phenyl)acetamide] | – | –
60.4 ± 6.2 nM | 73.6 ± 14.7 nM | 28% ± 8% | – | – | – | Cn1cc2c(nc(NC(=O)Nc3ccc(CC(=O)NCCCCNC(=S)Nc4ccc5c(c4)C(=O)OC54c5ccc(O)cc5Oc5cc(O)ccc54)cc3)n3nc(-c4ccco4)nc23)n1 [Compound 23, N-(4-(3-(Fluorescein-5-yl)thioureido)butyl)-2-(4-(3-(2-(furan-2-yl)-8-methyl-8H-pyrazolo[4,3-e][1,2,4]triazolo[1,5-c]pyrimidin-5-yl)ureido)phenyl)acetamide] | – | –

The next lines start with the compound.

SMILES | Ki (hA2AAR; Table 3) | Ki (hA3AR; Table 3) | A1 % inhibition (hA1 AR; Table 3) | Ki (hA2AAR; [1]) | Ki (hA3AR; [2]) | Ki (hA1 AR; Table 1, CHO cells expressing hA1AR, agonist radioligand [3H]R-PIA, read-out: A1 Ki) | A1 % inhibition (hA1 AR; [3]) | A2A % Inhibition (hA2AAR; [3])
Cn1cc2c(nc(NC(=O)Nc3ccc(CC(=O)NCCCCCNC(=O)OC(C)(C)C)cc3)n3nc(-c4ccco4)nc23)n1 [Compound 14, tert-Butyl (5-(2-(4-(3-(2-(furan-2-yl)-8-methyl-8H-pyrazolo[4,3-e][1,2,4]triazolo[1,5-c]pyrimidin-5-yl)ureido)phenyl)acetamido)pentyl)carbamate] | 376 ± 96 nM | 4.47 ± 1.06 nM | 14% ± 3% | – | – | – | – | –
Cn1cc2c(nc(NCCCCNC(=S)Nc3ccc(-c4c5ccc(=O)cc-5oc5cc(O)ccc45)c(C(=O)O)c3)n3nc(-c4ccco4)nc23)n1 [Compound 3] | – | – | – | 460 ± 60 nM | 720 nM | – | (7 ± 5%) | –
C#CCCCC(=O)Nc1nc2ccc(Cl)cc2c2nc(-c3ccco3)nn12 [Compound 8, N-(9-Chloro-2-(furan-2-yl)-[1,2,4]triazolo[1,5-c]quinazolin-5-yl)hex-5-ynamide] | – | – | – | 51 ± 10 nM | 33.5 ± 10.1 nM | 170 ± 40 nM | – | –
Cn1cc2c(nc(NC(=O)Nc3ccc(CC(=O)O)cc3)n3nc(-c4ccco4)nc23)n1 [Compound 11, 2-(4-(3-(2-(furan-2-yl)-8-methyl-8H-pyrazolo[4,3-e][1,2,4]triazolo[1,5-c]pyrimidin-5-yl)ureido)phenyl)acetic acid] | 1010 nM | 128 ± 26 nM | – | – | – | – | – | –
Cn1cc2c(nc(NCCOOCCCCNC(=S)Nc3ccc(-c4c5ccc(=O)cc-5oc5cc(O)ccc45)c(C(=O)O)c3)n3nc(-c4ccco4)nc23)n1 [Compound 5] | – | – | – | – | 9390 ± 1730 nM | – | (0%) | (30 ± 6%)
